Test results as given in publication PMC2637447 (Neuropharmacology, 2008).

Key:
[1] = biological target: GluK1 (Homo sapiens, UniProt P39086); assay: Ca2+ fluorescence assay, antagonism of L-glutamate; format: cell-based
[2] = biological target: GluK3 (Homo sapiens, UniProt Q13003); assay: whole-cell voltage clamp, % inhibition at […] of […] glutamate currents; format: cell-based; details: read-out: % inhibition at 30 μM
Sequence of GluK3 (Q13003 32-919): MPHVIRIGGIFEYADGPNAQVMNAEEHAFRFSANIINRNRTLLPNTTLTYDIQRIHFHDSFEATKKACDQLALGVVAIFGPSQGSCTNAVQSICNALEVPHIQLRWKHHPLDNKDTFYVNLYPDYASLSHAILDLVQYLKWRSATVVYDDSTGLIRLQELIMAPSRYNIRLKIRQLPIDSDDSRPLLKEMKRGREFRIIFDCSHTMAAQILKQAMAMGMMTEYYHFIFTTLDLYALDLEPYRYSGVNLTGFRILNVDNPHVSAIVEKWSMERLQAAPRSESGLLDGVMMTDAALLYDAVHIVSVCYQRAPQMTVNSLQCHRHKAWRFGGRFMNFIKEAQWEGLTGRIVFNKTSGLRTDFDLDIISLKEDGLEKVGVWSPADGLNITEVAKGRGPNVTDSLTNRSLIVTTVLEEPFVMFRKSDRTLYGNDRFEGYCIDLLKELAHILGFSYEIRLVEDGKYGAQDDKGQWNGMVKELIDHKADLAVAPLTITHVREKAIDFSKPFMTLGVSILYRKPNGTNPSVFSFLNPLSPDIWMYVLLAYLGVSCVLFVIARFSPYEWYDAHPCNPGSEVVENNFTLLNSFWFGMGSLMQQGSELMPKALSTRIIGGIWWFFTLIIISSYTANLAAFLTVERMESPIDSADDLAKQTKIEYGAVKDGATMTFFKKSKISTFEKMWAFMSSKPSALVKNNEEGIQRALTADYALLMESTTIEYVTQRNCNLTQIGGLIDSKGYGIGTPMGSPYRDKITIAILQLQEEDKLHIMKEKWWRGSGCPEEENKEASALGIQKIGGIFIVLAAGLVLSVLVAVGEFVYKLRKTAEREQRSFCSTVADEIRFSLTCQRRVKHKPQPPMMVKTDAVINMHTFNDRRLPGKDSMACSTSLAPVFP

Sequence of GluK1 (P39086 31-918): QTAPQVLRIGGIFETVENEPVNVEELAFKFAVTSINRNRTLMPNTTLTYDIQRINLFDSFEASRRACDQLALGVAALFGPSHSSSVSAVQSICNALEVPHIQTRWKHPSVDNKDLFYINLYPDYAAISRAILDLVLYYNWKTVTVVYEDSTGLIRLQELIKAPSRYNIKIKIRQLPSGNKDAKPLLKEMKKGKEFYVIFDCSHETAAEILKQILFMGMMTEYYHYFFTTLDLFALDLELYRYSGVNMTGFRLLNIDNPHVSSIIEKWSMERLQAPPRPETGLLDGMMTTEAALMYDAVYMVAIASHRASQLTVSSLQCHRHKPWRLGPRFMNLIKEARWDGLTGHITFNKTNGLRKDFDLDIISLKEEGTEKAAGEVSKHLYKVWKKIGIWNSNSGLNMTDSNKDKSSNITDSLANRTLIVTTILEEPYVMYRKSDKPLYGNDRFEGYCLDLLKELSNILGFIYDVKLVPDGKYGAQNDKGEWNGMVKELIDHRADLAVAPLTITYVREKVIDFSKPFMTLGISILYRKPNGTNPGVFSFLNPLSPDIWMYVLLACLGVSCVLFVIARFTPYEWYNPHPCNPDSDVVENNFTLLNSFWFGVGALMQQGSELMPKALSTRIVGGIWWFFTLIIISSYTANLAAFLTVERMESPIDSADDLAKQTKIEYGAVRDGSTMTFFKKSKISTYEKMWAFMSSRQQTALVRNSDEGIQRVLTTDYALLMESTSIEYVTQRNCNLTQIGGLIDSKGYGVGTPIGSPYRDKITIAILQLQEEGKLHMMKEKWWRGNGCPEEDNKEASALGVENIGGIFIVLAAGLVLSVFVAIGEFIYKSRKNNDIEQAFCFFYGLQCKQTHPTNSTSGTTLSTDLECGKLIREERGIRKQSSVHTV

Molecule | Kb [1] [nM] | inhibition at 30 µM [2] [%]
Cc1cn(C[C@H](N)C(=O)O)c(=O)n(Cc2cc(-c3ccccc3)sc2C(=O)O)c1=O [ACET, (S)-1-(2-amino-2-carboxyethyl)-3-(2-carboxy-5-phenylthiophene-3-yl-methyl)-5-methylpyrimidine-2,4-dione] | 1.4 ± 0.2 | 30 ± 5
UBP304 | 110 ± 30 | 
